The values below come from patent US6007834A (priority 1997, dated 1999).

Data set [1] in a line: Blood plasma melatonin concentrations and pharmacokinetics in healthy male volunteers, by radioimmunoassay (cross-over study). The data set is classed as in vivo, human. Particulars: for Tmax: human, plasma. The method, then: An open randomized, four treatment (treatments A, B, C and D below), cross-over study involving 8 healthy male volunteers was carried out. Before drug administration, the subjects were fasted overnight for at least 10 hours. The administered formulations were as follows:
A: 100 μl water, intranasal (placebo);

The conditions of data set [2]: cited from earlier work.
In data set [3] the test system is nasal mucosa. Particulars: propylene glycol in place of ethanol; cited from earlier work.
Data set [4] relates to nasal mucosa. Particulars: in vivo.

Turning to `COc1ccc2[nH]cc(CCNC(C)=O)c2c1` [melatonin, N-acetyl-5-methoxytryptamine], in data set [1] (0.2 mg nasal vs 2.5 mg oral), the “Cmax, times higher than that resulting from the oral dose” value is “about 5 times” and the “amount of melatonin absorbed, 0.2 mg nasal dose vs 2.5 mg oral dose” value was “About the same amount”. For the same molecule, the “amount of melatonin absorbed, 0.4 mg nasal dose vs 0.2 mg nasal dose” value in data set [1] (0.4 mg nasal vs 0.2 mg nasal) is recorded as “proportional”. The “Cmax, times higher than that resulting from the oral dose” value in data set [1] (0.4 mg nasal vs 2.5 mg oral) is listed as roughly 11 times. In addition, in data set [1] (0.2 and 0.4 mg nasal doses), the “dose proportionality of peak plasma concentrations (Cmax)” value is recorded as “proportional” and the Tmax was less than 0.167 h. Besides, the time of peak concentration (Tmax) in data set [1] (po, 2.5 mg) was determined as 1.5 h. In addition, the rate of absorption result in data set [1] (nasally administered) is reported as “absorbed extremely rapidly”. Also, the solubility in water result in data set [2] is given as “low solubility”.
`CC(O)CO` (stereo not drawn) [propylene glycol]: the “toxicity to the nasal mucosa” value in the data set on nasal mucosa [3] is given as “adversely affects the nasal mucosa”.
For the molecule `OCC(O)CO` [glycerol], the “irritation of the nasal mucosa” value with nasal mucosa [4] is listed as “does not lead to irritation of the nasal mucosa”. Besides, the “toxicity towards the epithelial membrane” value with epithelial membrane is “does not exert toxicity towards the epithelial membrane”.
